Laboratory results as given in patent US20130158362A1 (INFACARE PHARMACEUTICAL CORPORATION, priority 2011, published 2013).

Test system: total serum bilirubin (TSB)
Experiment: Phase 2b trial: total serum bilirubin (TSB), adjusted and unadjusted, change from baseline
Type: in vivo, human
Parameters: total serum bilirubin / total serum bilirubin, Delta (change from baseline) / Change from baseline of total serum bilirubin: unit not given here
Details: for total serum bilirubin / total serum bilirubin, Delta (change from baseline): 48 hours, preliminary data; for change from baseline in adjusted TSB, LS mean (SEM) / change from baseline in adjusted TSB, LS mean difference versus placebo / change from baseline in unadjusted TSB, LS Mean (SEM) / change from baseline in unadjusted TSB, LS Mean Difference versus placebo / change from baseline in adjusted TSB, LS mean (SEM) (primary endpoint): ANCOVA; for change from baseline in adjusted TSB, LS mean difference versus placebo, MMRM / change from baseline in adjusted TSB, LS means (SEM), MMRM: observed case
Method: Three cohorts of subjects were recruited. This clinical study was designed to evaluate safety and efficacy parameters in each cohort.
Scheduled assessments (including TSB) occurred before treatment and at 0.75 and 2 hours (or 1.5 and 3 hours, depending on PK blood sampling assignment); 6, 12, 24, 48, and 72 hours; and 14 and 30 (except TSB) days after treatment or early termination.
The primary efficacy endpoint was the change in adjusted TSB from baseline to 48 hours after treatment. The adjusted TSB was a calculation of the percentage variance of the TSB level from the age specific threshold for PT initiation per the AAP Guidelines, i.e., an indication of the distance below the PT threshold by time.
The Secondary Efficacy Endpoints were the change from baseline in unadjusted TSB at 48 hours after treatment, change from baseline in adjusted and unadjusted TSB at various other time points after treatment, percent change from baseline in unadjusted TSB, proportion of subjects who require PT/exchange transfusion (ET), time to PT/ET, duration of PT and time to hospital discharge.
Intent-to-treat population (ITT): Defined as all subjects who were randomly assigned treatment in the clinical study, had received IMP, and had at least 1 post baseline TSB measurement during the first 48 hours after treatment. Subjects were summarized based on randomized treatment.
Analysis of Efficacy Parameters: The primary efficacy analysis applied the analysis of covariance (ANCOVA) method to determine if there was a significant difference between treatment groups in change in adjusted TSB levels from baseline to 48 hours post baseline after controlling for the effects of gestational age and adjusted baseline TSB levels. If assumptions of ANCOVA appeared to be violated, a Wilcoxon rank-sum test could be performed instead. Time-to-event variables were analyzed using the Kaplan-Meier method, and Kaplan-Meier survival curves were presented.

[1] = 1.5 mg/kg, 6 hrs, unadjusted TSB, ITT Population
[2] = 1.5 mg/kg, 12 hrs, unadjusted TSB, ITT Population
[3] = 1.5 mg/kg, 24 hrs, unadjusted TSB, ITT Population
[4] = 1.5 mg/kg, 48 hrs, unadjusted TSB, ITT Population
[5] = 1.5 mg/kg, baseline, PP Population
[6] = 1.5 mg/kg, baseline, unadjusted TSB, ITT Population
[7] = 3.0 mg/kg IM, 48 h/early termination, ITT, LOCF

tin IV mesoporphyrin IX dichloride [Stannsoporfin]
6 hrs TSB, Mean (SD) [1]: 9.09 (2.175) mg/dL
6 hrs TSB, Min [1]: 5.1 mg/dL
12 hrs Percent Change from Baseline in TSB, Max [2]: 73.2%
12 hrs Percent Change from Baseline in TSB, Mean (SD) [2]: 29.91 (21.467) %
12 hrs Percent Change from Baseline in TSB, Min [2]: −12.8%
12 hrs TSB, Max [2]: 14.3 mg/dL
12 hrs TSB, Mean (SD) [2]: 9.82 (2.599) mg/dL
12 hrs TSB, Min [2]: 5.6 mg/dL
24 hrs Percent Change from Baseline in TSB, Max [3]: 66.1%
24 hrs Percent Change from Baseline in TSB, Mean (SD) [3]: 30.23 (27.126) %
24 hrs Percent Change from Baseline in TSB, Median [3]: 38.20%
24 hrs Percent Change from Baseline in TSB, Min [3]: −33.3%
24 hrs TSB, Max [3]: 12.2 mg/dL
24 hrs TSB, Mean (SD) [3]: 9.61 (2.566) mg/dL
24 hrs TSB, Min [3]: 5.2 mg/dL
48 hrs Percent Change from Baseline in TSB, Max [4]: 82.3%
48 hrs Percent Change from Baseline in TSB, Mean (SD) [4]: 32.71 (37.298) %
48 hrs Percent Change from Baseline in TSB, Min [4]: −57.7%
48 hrs TSB, Max [4]: 13.5 mg/dL
48 hrs TSB, Mean (SD) [4]: 9.85 (3.208) mg/dL
48 hrs TSB, Min [4]: 3.3 mg/dL
mean TSB levels (1.5 mg/kg, 14 days after treatment (text, not LOCF table)): 3.06 mg/dL
Baseline unadjusted TSB, Max [5]: 12.0 mg/dL
Baseline unadjusted TSB, Mean (SD) [5]: 7.52 (2.030) mg/dL
Baseline unadjusted TSB, Median [5]: 7.35 mg/dL
Baseline unadjusted TSB, Min [5]: 4.3 mg/dL
Baseline TSB, Max [6]: 12.0 mg/dL
Baseline TSB, Mean (SD) [6]: 7.59 (1.816) mg/dL
Baseline TSB, Min [6]: 4.3 mg/dL
total serum bilirubin (3.0 mg/kg IM (N = 13), treated per protocol): 10.53 ± 2.9
adjusted TSB, Mean (SD) (3.0 mg/kg IM, 6 h, ITT, LOCF): −13.20 (13.118) %
change from baseline in adjusted TSB, Mean (SD) (3.0 mg/kg IM, 6 h, ITT, LOCF): 2.72 (7.274) %
change from baseline in adjusted TSB, Median (3.0 mg/kg IM, 6 h, ITT, LOCF): 2.10%
change from baseline in unadjusted TSB, Mean (SD) (3.0 mg/kg IM, 6 h, ITT, LOCF): 1.53 (0.762) mg/dL
change from baseline in unadjusted TSB, Median (3.0 mg/kg IM, 6 h, ITT, LOCF): 1.35 mg/dL
unadjusted TSB, Mean (SD) (3.0 mg/kg IM, 6 h, ITT, LOCF): 9.74 (1.730) mg/dL
unadjusted TSB, Median (3.0 mg/kg IM, 6 h, ITT, LOCF): 9.90 mg/dL
change from baseline in adjusted TSB, LS mean (SEM) (3.0 mg/kg IM, 6 h, ITT, LOCF): 2.57 (2.186) %
change from baseline in adjusted TSB, LS mean difference versus placebo (3.0 mg/kg IM, 6 h, ITT, LOCF): −1.82%
change from baseline in unadjusted TSB, LS Mean (SEM) (3.0 mg/kg IM, 6 h, ITT, LOCF): 1.39 (0.254) mg/dL
change from baseline in unadjusted TSB, LS Mean Difference versus placebo (3.0 mg/kg IM, 6 h, ITT, LOCF): -0.20 mg/dL
change from baseline in adjusted TSB, LS mean difference versus placebo, MMRM (3.0 mg/kg IM, 6 h, ITT): −1.69%
change from baseline in adjusted TSB, LS means (SEM), MMRM (3.0 mg/kg IM, 6 h, ITT): 2.68 (2.252) %
adjusted TSB, Mean (SD) (3.0 mg/kg IM, 12 h, ITT, LOCF): −15.06 (13.787) %
change from baseline in adjusted TSB, Mean (SD) (3.0 mg/kg IM, 12 h, ITT, LOCF): 0.87 (9.503) %
change from baseline in adjusted TSB, Median (3.0 mg/kg IM, 12 h, ITT, LOCF): 1.55%
change from baseline in unadjusted TSB, Mean (SD) (3.0 mg/kg IM, 12 h, ITT, LOCF): 2.05 (1.004) mg/dL
change from baseline in unadjusted TSB, Median (3.0 mg/kg IM, 12 h, ITT, LOCF): 1.90 mg/dL
unadjusted TSB, Mean (SD) (3.0 mg/kg IM, 12 h, ITT, LOCF): 10.26 (1.748) mg/dL
unadjusted TSB, Median (3.0 mg/kg IM, 12 h, ITT, LOCF): 10.90 mg/dL
change from baseline in adjusted TSB, LS mean (SEM) (3.0 mg/kg IM, 12 h, ITT, LOCF): 2.64 (3.209) %
change from baseline in adjusted TSB, LS mean difference versus placebo (3.0 mg/kg IM, 12 h, ITT, LOCF): −4.50%
change from baseline in unadjusted TSB, LS Mean (SEM) (3.0 mg/kg IM, 12 h, ITT, LOCF): 2.06 (0.393) mg/dL
change from baseline in unadjusted TSB, LS Mean Difference versus placebo (3.0 mg/kg IM, 12 h, ITT, LOCF): -0.54 mg/dL
change from baseline in adjusted TSB, LS mean difference versus placebo, MMRM (3.0 mg/kg IM, 12 h, ITT): −5.14%
change from baseline in adjusted TSB, LS means (SEM), MMRM (3.0 mg/kg IM, 12 h, ITT): 0.83 (2.821) %
adjusted TSB, Mean (SD) (3.0 mg/kg IM, 24 h, ITT, LOCF): −24.46 (11.302) %
change from baseline in adjusted TSB, Mean (SD) (3.0 mg/kg IM, 24 h, ITT, LOCF): −8.53 (16.045) %
change from baseline in adjusted TSB, Median (3.0 mg/kg IM, 24 h, ITT, LOCF): −3.10%
change from baseline in unadjusted TSB, Mean (SD) (3.0 mg/kg IM, 24 h, ITT, LOCF): 1.85 (1.596) mg/dL
change from baseline in unadjusted TSB, Median (3.0 mg/kg IM, 24 h, ITT, LOCF): 2.08 mg/dL
unadjusted TSB, Mean (SD) (3.0 mg/kg IM, 24 h, ITT, LOCF): 10.06 (1.757) mg/dL
unadjusted TSB, Median (3.0 mg/kg IM, 24 h, ITT, LOCF): 10.45 mg/dL
change from baseline in adjusted TSB, LS mean (SEM) (3.0 mg/kg IM, 24 h, ITT, LOCF): −9.21 (4.598) %
change from baseline in adjusted TSB, LS mean difference versus placebo (3.0 mg/kg IM, 24 h, ITT, LOCF): −9.12%
change from baseline in unadjusted TSB, LS Mean (SEM) (3.0 mg/kg IM, 24 h, ITT, LOCF): 1.67 (0.578) mg/dL
change from baseline in unadjusted TSB, LS Mean Difference versus placebo (3.0 mg/kg IM, 24 h, ITT, LOCF): -1.08 mg/dL
change from baseline in adjusted TSB, LS mean difference versus placebo, MMRM (3.0 mg/kg IM, 24 h, ITT): −7.01%
change from baseline in adjusted TSB, LS means (SEM), MMRM (3.0 mg/kg IM, 24 h, ITT): −8.57 (3.894) %
adjusted TSB, Mean (SD) [7]: −31.80 (18.214) %
adjusted TSB, Median [7]: −24.75%
change from baseline in adjusted TSB, Mean (SD) (3.0 mg/kg IM, 48 h, ITT, LOCF): −15.88 (21.406) %
change from baseline in adjusted TSB, Median (3.0 mg/kg IM, 48 h, ITT, LOCF): −9.05%
change from baseline in unadjusted TSB, Mean (SD) (3.0 mg/kg IM, 48 h, ITT, LOCF): 2.47 (2.703) mg/dL
change from baseline in unadjusted TSB, Median (3.0 mg/kg IM, 48 h, ITT, LOCF): 2.94 mg/dL
unadjusted TSB, Mean (SD) (3.0 mg/kg IM, 48 h, ITT, LOCF): 10.68 (2.956) mg/dL
unadjusted TSB, Median (3.0 mg/kg IM, 48 h, ITT, LOCF): 11.65 mg/dL
change from baseline in adjusted TSB, LS mean (SEM) (primary endpoint) (3.0 mg/kg IM, 48 h, ITT, LOCF): −11.60 (5.612) %
change from baseline in adjusted TSB, LS mean difference versus placebo (3.0 mg/kg IM, 48 h, ITT, LOCF): −10.02%
change from baseline in unadjusted TSB, LS Mean (SEM) (3.0 mg/kg IM, 48 h, ITT, LOCF): 2.90 (0.886) mg/dL
change from baseline in unadjusted TSB, LS Mean Difference versus placebo (3.0 mg/kg IM, 48 h, ITT, LOCF): -1.34 mg/dL
change from baseline in adjusted TSB, LS mean (SEM) (primary endpoint) (3.0 mg/kg IM, 48 h, ITT, LOCF, listed as stannsoporfin): 11.6%
change from baseline in adjusted TSB, LS mean difference versus placebo, MMRM (3.0 mg/kg IM, 48 h, ITT): −9.24%
change from baseline in adjusted TSB, LS means (SEM), MMRM (3.0 mg/kg IM, 48 h, ITT): −15.92 (4.919) %
total serum bilirubin (3.0 mg/kg IM, intent to treat): 10.68 ± 3.0
total serum bilirubin, Delta (change from baseline) (3.0 mg/kg IM, intent to treat): 2.47 ± 2.7
total serum bilirubin, Delta (change from baseline) (3.0 mg/kg IM, treated per protocol): 2.20 ± 2.9
adjusted TSB, Mean (SD) (3.0 mg/kg IM, 72 h/early termination, ITT, LOCF): −42.64 (21.640) %
change from baseline in adjusted TSB, Mean (SD) (3.0 mg/kg IM, 72 h, ITT, LOCF): −26.72 (24.245) %
change from baseline in adjusted TSB, Median (3.0 mg/kg IM, 72 h, ITT, LOCF): −17.30%
